Consider twelve molecules from patent publication US20240116985A1, “STAPLED PEPTIDES AND METHODS THEREOF” (priority 2020, published 2024).

In data set [1] the target is T1, full-length beta-Catenin (Uniprot ID P35222) (Homo sapiens, UniProt P35222).
T1 construct: 10 nM full-length beta-Catenin (Uniprot ID P35222)
T1 sequence (P35222 1-781): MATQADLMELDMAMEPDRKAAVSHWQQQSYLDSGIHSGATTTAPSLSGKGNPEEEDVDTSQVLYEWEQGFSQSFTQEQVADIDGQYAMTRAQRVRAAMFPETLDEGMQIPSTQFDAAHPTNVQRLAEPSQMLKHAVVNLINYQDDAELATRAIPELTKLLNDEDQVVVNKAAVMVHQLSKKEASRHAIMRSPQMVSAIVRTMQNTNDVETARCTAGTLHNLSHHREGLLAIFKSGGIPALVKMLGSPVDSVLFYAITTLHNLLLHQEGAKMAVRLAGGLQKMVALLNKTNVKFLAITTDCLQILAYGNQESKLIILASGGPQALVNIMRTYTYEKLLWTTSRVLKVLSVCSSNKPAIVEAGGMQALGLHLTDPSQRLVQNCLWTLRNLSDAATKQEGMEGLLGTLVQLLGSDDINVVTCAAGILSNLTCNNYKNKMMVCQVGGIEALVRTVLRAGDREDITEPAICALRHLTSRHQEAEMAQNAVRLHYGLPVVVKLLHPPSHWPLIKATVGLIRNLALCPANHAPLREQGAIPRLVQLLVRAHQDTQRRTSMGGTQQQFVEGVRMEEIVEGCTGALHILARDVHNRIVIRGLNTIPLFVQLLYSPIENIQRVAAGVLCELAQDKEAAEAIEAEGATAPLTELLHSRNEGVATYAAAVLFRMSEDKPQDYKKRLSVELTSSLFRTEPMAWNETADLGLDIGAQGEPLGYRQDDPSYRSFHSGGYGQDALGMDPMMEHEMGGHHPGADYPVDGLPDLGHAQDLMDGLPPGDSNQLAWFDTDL
The data set is described as follows: Fluorescence polarization IC50 (beta-catenin / 5FAM-TCF4 10-53 competition). Format: binding. For orientation: Fluorescence polarisation rises when a labelled molecule tumbles more slowly, as on binding a larger partner.

Data set [2] can be described thus: CHI Log D procedure. Format: physicochemical. To be noted: for CHI Log D: pH 7.4; for chromatographic logD: pH 7.4, CHI Log D.
A short description of data set [3]: Solubility in PBS. In kind it is physicochemical. In short, it runs like this: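 The PBS solution was ultracentrifuged and the supernatant analyzed by HPLC. Its peak area was divided by that of a 50 μM peptide DMSO reference injection and multiplied by 50 uM to give solubility.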
[4] abbreviates: fluorescence polarization, beta-catenin, read-out: FP EC50.

Values after ≈ are worked out from the molar mass of the structure shown. Like-named read-outs stand apart in the source and are kept apart here.

One may read the Solubility as how much of the substance goes into solution per volume. Low values mean a poorly soluble substance, high ones a readily soluble substance. For orientation: chromatographic logD means lipophilicity estimated from chromatographic retention.

`CC(=O)N1CCC[C@]12CC=CCCCC1(CCCC=CCCCOC(=O)N3CC[C@@](C(=O)N[C@@H](Cc4ccccc4Cl)C(=O)N[C@@H](Cc4csc5ccccc45)C(=O)N[C@@H](CCC(N)=O)C(N)=O)(C3)NC(=O)[C@H](CC(C)C)NC(=O)[C@H](Cc3ccccc3)NC(=O)[C@H](C)NC(=O)[C@H](C)NC(=O)[C@H](CC(=O)O)NC(=O)[C@H](CC(=O)O)NC1=O)NC(=O)[C@H](CC1CCCCC1)NC(=O)[C@H](CC(=O)O)NC2=O` (stereo partly drawn) [I-1075, Ac-PL3-Asp-Cha-B5-Asp-Asp-Ala-Ala-Phe-Leu-PyrS2-2C1F-BztA-Gln-NH2]: the IC50 in data set [1] (setting [4]) and in data set [1] (read-out: beta-Catenin FP IC50) was 567 nM throughout. Also, in data set [2], the “CHI Log D” value worked out at 1.971. Further, in data set [3], the “Solubility” value worked out at 17 µM (≈ 33.5 µg/mL).
Consider `CC(=O)N1CCC[C@]12CC=CCCCC1(CCCC=CCCCOC(=O)N3CC[C@@](C(=O)N[C@@H](Cc4ccccc4Cl)C(=O)N[C@@H](Cc4csc5ccccc45)C(=O)N[C@@H](CCC(N)=O)C(N)=O)(C3)NC(=O)[C@H](CC(C)C)NC(=O)[C@H](Cc3ccccc3)NC(=O)[C@H](C)NC(=O)[C@H](C)NC(=O)[C@H](CCC(=O)O)NC(=O)[C@H](CC(=O)O)NC1=O)NC(=O)[C@H](CC1CCCCC1)NC(=O)[C@H](CC(=O)O)NC2=O` (stereo partly drawn) [I-1077, Ac-PL3-Asp-Cha-B5-Asp-Glu-Ala-Ala-Phe-Leu-PyrS2-2C1F-BztA-Gln-NH2], for which the IC50 in data set [1] (setting [4]) and in data set [1] (read-out: beta-Catenin FP IC50) was 324 nM throughout. Further, the “CHI Log D” value in data set [2] is 2.06. The “Solubility” value in data set [3] is 10 µM (≈ 19.9 µg/mL).
As to `CC(=O)N1CCC[C@]12CC=CCCCC1(CCCC=CCCCOC(=O)N3CC[C@@](C(=O)N[C@@H](Cc4ccccc4Cl)C(=O)N[C@@H](Cc4csc5ccccc45)C(=O)N[C@@H](CCC(N)=O)C(N)=O)(C3)NC(=O)[C@H](CC(C)C)NC(=O)[C@H](Cc3ccccc3)NC(=O)[C@H](C)NC(=O)[C@H](C)NC(=O)[C@H](CCC(=O)O)NC(=O)[C@H](CC(=O)O)NC1=O)NC(=O)[C@H](CC1CCCCC1)NC(=O)[C@H](CC(=O)O)NC2=O` (stereo partly drawn) [I-1078, Ac-PL3-Asp-Cha-B5-Asp-Glu-Ala-Ala-Phe-Leu-PyrS2-2C1F-BztA-Gln-NH2], the IC50 in data set [1] (setting [4]) and in data set [1] (read-out: beta-Catenin FP IC50) was 352 nM each time. Besides, in data set [2], the “CHI Log D” value is given as 2.162. Further, the “Solubility” value in data set [3] was 27 µM (≈ 53.6 µg/mL).
Consider `CC(=O)N1CCC[C@]12CC=CCCCC1(CCCC=CCCCOC(=O)N3CC[C@@](C(=O)N[C@@H](Cc4ccccc4Cl)C(=O)N[C@@H](Cc4csc5ccccc45)C(=O)N[C@@H](CCC(N)=O)C(=O)NCCCCCCN=[N+]=[N-])(C3)NC(=O)[C@H](Cc3ccccc3)NC(=O)[C@H](Cc3ccccc3)NC(=O)[C@H](C)NC(=O)[C@H](C)NC(=O)[C@H](CN(CC(=O)O)CC(F)(F)F)NC(=O)[C@H](CC(=O)O)NC1=O)NC(=O)[C@H](CC(C)(C)C)NC(=O)[C@H](CC(=O)O)NC2=O` (stereo partly drawn) [I-1085, Ac-PL3-Asp-Npg-B5-Asp-TfeGA-Ala-Ala-Phe-Phe-PyrS2-2C1F-BztA-Gln-6AzHex], for which, in data set [1] (setting [4]), the IC50 came out at 390 nM. Further, in data set [2], the chromatographic logD is 3.7. In data set [3], the “Solubility” value stood at 10 µM (≈ 22.2 µg/mL).
On to `CC(=O)N1CCC[C@]12CC=CCCCC1(CCCC=CCCCCCC[C@@](C)(C(=O)N[C@@H](Cc3ccccc3Cl)C(=O)N[C@@H](Cc3csc4ccccc34)C(=O)N[C@@H](C(N)=O)[C@H](C)O)NC(=O)[C@H]([C@@H](C)O)NC(=O)[C@H](Cc3ccccc3)NC(=O)[C@H](C)NC(=O)[C@H](C)NC(=O)[C@H](CCC(=O)O)NC(=O)[C@H](CC(=O)O)NC1=O)NC(=O)[C@H](CC(C)(C)C)NC(=O)[C@H](CC(=O)O)NC2=O` (stereo partly drawn) [I-1093, Ac-PL3-Asp-Npg-B5-Asp-Glu-Ala-Ala-Phe-Thr-S8-2C1F-BztA-dThr-NH2], for which the IC50 in data set [1] (setting [4]) and in data set [1] (read-out: beta-Catenin FP IC50) was 43 nM in each case. Moreover, the “CHI Log D” value in data set [2] was determined as 3.22. Further, in data set [3], the “Solubility” value came to 48 µM (≈ 90.1 µg/mL).
On to `CC(=O)N1CCC[C@]12CC=CCCCC1(CCCC=CCCCCCC[C@@](C)(C(=O)N[C@@H](Cc3ccccc3Cl)C(=O)N[C@@H](Cc3csc4ccccc34)C(=O)N[C@@H](C(N)=O)[C@H](C)O)NC(=O)[C@H](CC(C)C)NC(=O)[C@H](Cc3ccccc3)NC(=O)[C@H](C)NC(=O)[C@H](C)NC(=O)[C@H](CCC(=O)O)NC(=O)[C@H](CC(=O)O)NC1=O)NC(=O)[C@H](CC(C)(C)C)NC(=O)[C@H](CC(=O)O)NC2=O` (stereo partly drawn) [I-1098, Ac-PL3-Asp-Npg-B5-Asp-Glu-Ala-Ala-Phe-Leu-S8-2ClF-BztA-dThr-NH2], for which the IC50 in data set [1] (read-out: beta-Catenin FP IC50) was found to be 100 nM. In data set [2], this molecule showed a chromatographic logD of 3.54. In data set [3], the “Solubility” value is 10 µM (≈ 18.9 µg/mL).
In the same order, the values of `CC(=O)N1CCC[C@]12CC=CCCCC1(CCCC=CCCCOC(=O)N3CC[C@@](C(=O)N[C@@H](Cc4ccccc4F)C(=O)N[C@@H](Cc4csc5ccccc45)C(=O)N[C@@H](CO)C(N)=O)(C3)NC(=O)[C@H](CO)NC(=O)[C@H](Cc3ccccc3)NC(=O)[C@H](C)NC(=O)[C@H](C)NC(=O)[C@H](CC(=O)O)NC(=O)[C@H](CC(=O)O)NC1=O)NC(=O)[C@H](CC1CCCCC1)NC(=O)[C@H](CC(=O)O)NC2=O` (stereo partly drawn) [I-1102, Ac-PL3-Asp-Cha-B5-Asp-Asp-Ala-Ala-Phe-Ser-PyrS2-2FF-BztA-Ser-NH2] are 16 nM, 2.39 and 10 µM (≈ 18.9 µg/mL).
For `CC(=O)N1CCC[C@]12CC=CCCCC1(CCCC=CCCCOC(=O)N3CC[C@@](C(=O)N[C@@H](Cc4ccccc4Cl)C(=O)N[C@@H](Cc4csc5ccccc45)C(=O)N[C@@H](CO)C(N)=O)(C3)NC(=O)[C@H](CC(C)C)NC(=O)[C@H](Cc3ccccc3)NC(=O)[C@H](C)NC(=O)[C@H](C)NC(=O)[C@H](CC(=O)O)NC(=O)[C@H](CC(=O)O)NC1=O)NC(=O)[C@H](CC1CCCCC1)NC(=O)[C@H](CC(=O)O)NC2=O` (stereo partly drawn) [I-1112, Ac-PL3-Asp-Cha-B5-Asp-Asp-Ala-Ala-Phe-Leu-PyrS2-2C1F-BztA-Ser-NH2], the IC50 in data set [1] (read-out: beta-Catenin FP IC50) came to 40 nM. The molecule also had a chromatographic logD in data set [2] of 2.72. For the same molecule, the “Solubility” value in data set [3] amounted to 10 µM (≈ 19.3 µg/mL).
In the same order, the values of `CC(=O)N1CCC[C@]12CC=CCCCC1(CCCC=CCCCOC(=O)N3CC[C@@](C(=O)N[C@@H](Cc4ccccc4Cl)C(=O)N[C@@H](Cc4csc5ccccc45)C(=O)N[C@@H](CO)C(N)=O)(C3)NC(=O)[C@H](CC3CCCCC3)NC(=O)[C@H](Cc3ccccc3)NC(=O)[C@H](C)NC(=O)[C@H](C)NC(=O)[C@H](CC(=O)O)NC(=O)[C@H](CC(=O)O)NC1=O)NC(=O)[C@H](CC1CCCCC1)NC(=O)[C@H](CC(=O)O)NC2=O` (stereo partly drawn) [I-1113, Ac-PL3-Asp-Cha-B5-Asp-Asp-Ala-Ala-Phe-Cha-PyrS2-2C1F-BztA-Ser-NH2] are 64 nM, 2.99 and 10 µM (≈ 19.7 µg/mL).
For `CC(=O)N1CCC[C@]12CC=CCCCC1(CCCC=CCCCOC(=O)N3CC[C@@](C(=O)N[C@@H](Cc4ccccc4Cl)C(=O)N[C@@H](Cc4csc5ccccc45)C(=O)N[C@@H](CO)C(N)=O)(C3)NC(=O)[C@H](CC(C)C)NC(=O)[C@H](Cc3ccccc3)NC(=O)[C@H](C)NC(=O)[C@H](C)NC(=O)[C@H](CC(=O)O)NC(=O)[C@H](CC(=O)O)NC1=O)NC(=O)[C@H](Cc1cccc3ccccc13)NC(=O)[C@H](CC(=O)O)NC2=O` (stereo partly drawn) [I-1116, Ac-PL3-Asp-1NapA-B5-Asp-Asp-Ala-Ala-Phe-Leu-PyrS2-2C1F-BztA-Ser-NH2], the IC50 in data set [1] (read-out: beta-Catenin FP IC50) is 40 nM. For the same molecule, in data set [2], the chromatographic logD came to 2.62. The molecule also gave a Solubility in data set [3] (Solubility (uM)) of 13 µM (≈ 25.7 µg/mL).
As for `CC(=O)N1CCC[C@]12CC=CCCCC1(CCCC=CCCCOC(=O)N3CC[C@@](C(=O)N[C@@H](Cc4ccccc4Cl)C(=O)N[C@@H](Cc4csc5ccccc45)C(=O)N[C@@H](CO)C(N)=O)(C3)NC(=O)[C@H](CC(C)C)NC(=O)[C@H](Cc3ccccc3)NC(=O)[C@H](C)NC(=O)[C@H](C)NC(=O)[C@H](CC(=O)O)NC(=O)[C@H](CC(=O)O)NC1=O)NC(=O)[C@H](Cc1ccc3ccccc3c1)NC(=O)[C@H](CC(=O)O)NC2=O` (stereo partly drawn) [I-1117, Ac-PL3-Asp-2NapA-B5-Asp-Asp-Ala-Ala-Phe-Leu-PyrS2-2C1F-BztA-Ser-NH2], the IC50 in data set [1] (read-out: beta-Catenin FP IC50) stood at 55 nM. This molecule also showed a chromatographic logD in data set [2] of 2.61. Further, the “Solubility” value in data set [3] stood at 10 µM (≈ 19.7 µg/mL).
For the molecule `CC(=O)N1CCC[C@]12CC=CCCCC1(CCCC=CCCCOC(=O)N3CC[C@@](C(=O)N[C@@H](Cc4ccccc4)C(=O)N[C@@H](Cc4csc5ccccc45)C(=O)N[C@@H](CCC(N)=O)C(N)=O)(C3)NC(=O)[C@H](CC(C)C)NC(=O)[C@H](Cc3ccc(C(F)(F)F)cc3)NC(=O)[C@H](C)NC(=O)[C@H](C)NC(=O)[C@H](CC(=O)O)NC(=O)[C@H](CC(=O)O)NC1=O)NC(=O)[C@H](CC(C)(C)C)NC(=O)[C@H](CC(=O)O)NC2=O` (stereo partly drawn) [I-1129, Ac-PL3-Asp-Npg-B5-Asp-Asp-Ala-Ala-4F3MeF-Leu-PyrS2-Phe-BztA-Gln-NH2], the IC50 in data set [1] (read-out: beta-Catenin FP IC50) was determined as 39 nM. This molecule also had a chromatographic logD in data set [2] of 2.33. In data set [3] (Solubility (uM)), this molecule registered a Solubility of 29 µM (≈ 57.4 µg/mL).
